Data: US11867690B2, “Identification of functional cell states” ([…] AG, priority 2014, dated 2024)
Entries after “also recorded” stand apart in the source; their conditions may differ.

Columns and labels:
[1] = tested on: HL-60 cells; experiment: Plate 1b: mitochondrial membrane potential (MMP) measured with JC-9 by flow cytometry; type: cell-based, human
Procedure: Cells were deposited into 384 well plates (1×10^6 cells in 40 μl tissue culture media), and serial dilutions of test compounds (or vehicle in the case of controls) were deposited in individual wells using standard robotic techniques. Compound deposition and dilution was performed by BIOMEK FX (5 or 10-step dilutions from 100 to 0.005 μM). Dilutions were prepared from stock solutions of compounds dissolved initially in 100% DMSO. Final volume deposited into each well is 2 μl of each compound dilution (compounds are in a final concentration of 1% DMSO). After incubation in a tissue culture incubator (5% CO2 at 37° C.) for varying periods of time (typically 4 hours), plates were centrifuged at room temperature, followed by removal of 20 μl supernatant fluid. After vibration of the plate to re-suspend cells, a dye mix (Plate 1a Monobromobimane, CALCEIN AM, MITOSOX™ and SYTOSOX™ RED; plate 1b VYBRANVIOLET™ Live Cell Cycle dye, JC-9, and SYTOSOX™ RED) was added in a total volume of 20 μl, followed by an additional mixing step. Plates were returned to the tissue culture incubator (5% CO2 at 37° C.) for an additional 15 min (plate 1a) or 30 min (plate 1b), followed by immediate analysis using the […]-CYAN™.
Measurements identical to those described in Example 2 above were made using a second combination of dyes: • (1) VYBRANVIOLET™ to measure cell cycle in live cells; • (2) JC-9 to measure mitochondrial membrane potential (MMP); and • (3) SYTOXRED™ (as described herein above).
The measurement of mitochondrial membrane potential (MMP) with JC-9 was performed with two independent fluorescence channels (green and red fluorescence signals), as changes in MMP cause aggregation of the dye, with different fluorescence emission by the aggregated versus non-aggregated dye molecules. […] At higher valinomycin concentrations, red fluorescence […]. A unique aspect of this assay is that it correlates changes in MMP (JC-9) and cell death (SYTOXRED™) with the phases of the cell cycle (G1, S, and G2M).
An identical study to the one described before was conducted with exposing HL60 cells exposed to 1.23 μM idarubicin, an analog of daunorubicin which inserts into DNA and prevents it from unwinding during DNA replication and arrests cell division.

[2] = tested on: HL-60 cells; experiment: Cell physiology assay plate 1a: flow cytometry with MBBR, CALCEIN AM, MITOSOX RED and SYTOXRED; type: cell-based, human
Procedure: Cells were deposited into 384 well plates (1×10^6 cells in 40 μl tissue culture media), and serial dilutions of test compounds (or vehicle in the case of controls) were deposited in individual wells using standard robotic techniques. Compound deposition and dilution was performed by BIOMEK FX (5 or 10-step dilutions from 100 to 0.005 μM). Dilutions were prepared from stock solutions of compounds dissolved initially in 100% DMSO. Final volume deposited into each well is 2 μl of each compound dilution (compounds are in a final concentration of 1% DMSO). After incubation in a tissue culture incubator (5% CO2 at 37° C.) for varying periods of time (typically 4 hours), plates were centrifuged at room temperature, followed by removal of 20 μl supernatant fluid. After vibration of the plate to re-suspend cells, a dye mix (Plate 1a Monobromobimane, CALCEIN AM, MITOSOX™ and SYTOSOX™ RED; plate 1b VYBRANVIOLET™ Live Cell Cycle dye, JC-9, and SYTOSOX™ RED) was added in a total volume of 20 μl, followed by an additional mixing step.
Each well of the 384-well plate was sampled with a 6 second sip time, plus 1 second delay between wells, resulting in a total read time for each plate of approximately 45 minutes. Data was acquired using a CYAN™ flow cytometer, with the […]™ software used to compile files for each well on an individual plate using an FCS format. Data for each plate was subsequently analyzed for several quality assurance parameters (total number of events per well, numbers of events associated with morphologically normal events, number of dead cells), as described below.
Flow cytometric analyses of intrinsic cell properties (forward light scatter and light scattered orthogonal to the laser beam) and fluorescence signals derived from the dyes listed in Table 1 was carried out for plates 1a and 1b.
Chem. Soc. […] Technol. […] MITOSOX™ RED is a compound that can diffuse into viable cells and reacts with superoxide anion species, particularly products of mitochondrial respiration; conditions such as cell stress can cause mitochondria to respond (sometimes rapidly) by increasing respiration and/or release superoxide anions; and • (3) SYTOXRED™ to measure cell viability (loss of nuclear membrane integrity). SYTOXRED™ is a high-affinity DNA stain that can only pass through the cytoplasmic and nuclear membranes of cells which have lost the integrity of both membranes; thus, brightly fluorescent cells are dead.

[3] = tested on: human peripheral blood monocytes; experiment: Kinetics of signal transduction responses to LPS in whole blood monocytes by flow cytometry; type: cell-based; conditions: LPS alone
Description: Herein, specific dyes that monitor cell membrane permeability (marker for cell death), nuclear membrane permeability (marker for cell death), signal transduction pathways implicated in DNA damage (phospho-Histone H2A, phospho-ATM/ATR, phospho-p53), signal transduction pathways implicated in inflammation (e.g., NF-kB), signal transduction via the MAP kinase pathways (ERK, SAP/JNK, p38), signal transduction via the PI3 Kinase pathway (Akt, GSK3B, RS6K, S6), early apoptotic pathways (e.g., annexin V), mid apoptotic pathways (e.g., cleaved caspase), late apoptotic pathways (e.g., PARP/DNA fragmentation), etc. may be employed.

[4] = tested on: phosphorylation of the downstream STAT5 target in K562 cells; experiment: Phosphorylation of STAT5 in K562 cells by flow cytometry; type: cell-based; conditions: Homo sapiens, 0.5 h, 30 min
Procedure: Cells were deposited onto dilutions of test compounds deposited into individual wells of […], as indicated above. Following incubation in a tissue culture incubator (5% CO2 at 37° C.) for 30 minutes to 12 hr, the cells were pelleted by centrifugation, the supernatant was removed, the cells were re-suspended by vibration in the remaining supernatant fluid, and 50 μl of fixative (1.2% formaldehyde in PBS) was added. Following 15 min incubation (at 37° C.), cells were pelleted by centrifugation, supernatant removed, and the cells were suspended by vibrating the plate.
Cell were permeabilized by adding 150 μl cold absolute methanol, followed by incubation at 4° C. for 15 minutes. Permeabilized cells were centrifuged, supernatant removed, and cells were washed three times with cold (4° C.) PBS containing 4% FBS. Following the final wash, cells were centrifuged, the supernatant was removed, and cells were re-suspended in an antibody cocktail (total volume 20 μl) appropriate for that experiment.

[5] = 33 μM, cells with normal morphology
[6] = 33 μM, population with altered morphology

With `CC(=O)[C@]1(O)Cc2c(O)c3c(c(O)c2[C@@H](O[C@H]2C[C@H](N)[C@H](O)[C@H](C)O2)C1)C(=O)c1ccccc1C3=O` [idarubicin] the “JC-9 red fluorescence versus untreated control cells” value ([1]; 1.23 μM) was “significantly higher” and the JC-9 green fluorescence ([1]; FIG. 6B) was “does not increase”.

In the case of `CC(C)[C@@H]1NC(=O)[C@H](C)OC(=O)[C@@H](C(C)C)NC(=O)[C@@H](C(C)C)OC(=O)[C@H](C(C)C)NC(=O)[C@H](C)OC(=O)[C@@H](C(C)C)NC(=O)[C@@H](C(C)C)OC(=O)[C@H](C(C)C)NC(=O)[C@H](C)OC(=O)[C@@H](C(C)C)NC(=O)[C@@H](C(C)C)OC1=O` [valinomycin], the “concentration at peak of JC-9 red and green fluorescence” value ([1]; FIG. 6A legend) is reported as ~0.045 µM, the “concentration at peak JC-9 green fluorescence” value ([1]; FIG. 6A, Example 4A) is reported as ~0.05 µM and the “JC-9 red and green fluorescence” value ([1]; with increasing concentration, FIG. 6A) is reported as “initially increase; also recorded: significantly higher”.

For `CO/C(=C/C(N)=O)[C@H](C)[C@H](/C=C/c1csc(-c2csc([C@@H](C)/C=C/C=C/C(C)C)n2)n1)OC` [myxothiazol], the “CALCEIN AM” value ([2]; 100 μM) was “decrease”, the “GSH (MBBR)” value ([2]; 100 μM) was “decrease” and the “ROS (MITOSOX RED)” value ([2]; 100 μM) was “increase”. For the same molecule, the “SYTOXRED (cytoplasmic and nuclear membrane permeability, viability)” value ([2]; 100 μM) was “increase”, the “cell morphology (light scatter)” value ([2]; 100 μM) was “significant change in cell morphology” and the “SYTOXRED (cytoplasmic and nuclear membrane permeability, viability)” value ([2]; 100 μM, listed as myxothiozol) was “perturbs cytoplasmic and nuclear membrane permeability (viability)”.

In the case of `N#CC(C#N)=NNc1ccc(OC(F)(F)F)cc1` [FCCP, carbonyl cyanide-4-(trifluoromethoxy)phenylhydrazone], the “CALCEIN AM” value [2, 5] is reported as “normal”, the GSH [2, 5] is reported as “normal” and the ROS [2, 5] is reported as “increased ROS”. The “nuclear and cytoplasmic membranes (SYTOX Red uptake)” value [2, 5] was “intact nuclear and cytoplasmic membranes”, the CALCEIN [2, 6] was “increased CALCEIN” and the GSH [2, 6] was “reduced GSH”. For the same molecule, the ROS [2, 6] was “increased ROS” and the SYTOXRED [2, 6] was “higher SYTOXRED™”.

lipopolysaccharide [LPS] was tested, and the “ERK, Akt and S6 (phosphorylation)” value [3] was “activated; also recorded: activates (phosphorylates)” and the “Iκ kinase (proteasomal degradation of IκBα)” value [3] was “activates”.

`Cc1ccc(NC(=O)c2ccc(CN3CCN(C)CC3)cc2)cc1Nc1nccc(-c2cccnc2)n1` [GLEEVEC, imatinib] was tested, and the inhibition at 2 µM [4] was > 95%.

In the case of `CNCCC(Oc1ccc(C(F)(F)F)cc1)c1ccccc1` (centres unmarked) [fluoxetine], the “CALCEIN AM” value ([2]; 100 μM) is reported as “reduced CALCEIN AM”, the “GSH (MBBR)” value ([2]; 100 μM) is reported as “reduced GSH” and the “ROS (MITOSOX RED)” value ([2]; 100 μM) is reported as “increased ROS”. For the same molecule, the “cell death in relation to cell cycle (SYTOXRED histogram)” value ([2]; 100 μM) was “cells are dying throughout the cell cycle”.
